According to ChEMBL document CHEMBL2331164, “Aspulvinones from a mangrove rhizosphere soil-derived fungus Aspergillus terreus Gwq-48 with anti-influenza A viral (H1N1) activity” (Bioorg Med Chem Lett, 2013):
≈ marks a conversion by molar mass, not a printed value.

Tests used:
[1] = Cytotoxicity against MDCK cells assessed as cell viability after 72 hrs by MTT assay; format: cell-based, Canis lupus familiaris; details: dog
[2] = Cytotoxicity against human A549 cells assessed as cell viability after 72 hrs by MTT assay; format: cell-based
[3] = tested on: Influenza A virus; test: microbe, parasite or virus in culture; details: A/Puerto Rico/8/1934(H1N1), MDCK, 48 h
[4] = target: Neuraminidase (Influenza A virus (A/Puerto Rico/8/1934(H1N1))) (UniProt P03468); test: Inhibition of inactivated Influenza A virus (A/Puerto Rico/8/1934(H1N1)) neuraminidase using MUNANA as substrate at 100 ug/mL incubated for 60 mins prior to substrate addition measured after 45 mins by fluorescence assay relative to control
[5] = target: Neuraminidase (Influenza A virus (A/Puerto Rico/8/1934(H1N1))) (UniProt P03468); test: (§1) Inhibition of inactivated Influenza A virus (A/Puerto Rico/8/1934(H1N1)) neuraminidase using MUNANA as substrate incubated for 60 mins prior to substrate addition measured after 45 mins by fluorescence assay
[6] = target: Neuraminidase (Influenza A virus (A/Puerto Rico/8/1934(H1N1)), UniProt P03468); test: as §1
Neuraminidase (Influenza A virus (A/Puerto Rico/8/1934(H1N1)), UniProt P03468), sequence (P03468 whole entry): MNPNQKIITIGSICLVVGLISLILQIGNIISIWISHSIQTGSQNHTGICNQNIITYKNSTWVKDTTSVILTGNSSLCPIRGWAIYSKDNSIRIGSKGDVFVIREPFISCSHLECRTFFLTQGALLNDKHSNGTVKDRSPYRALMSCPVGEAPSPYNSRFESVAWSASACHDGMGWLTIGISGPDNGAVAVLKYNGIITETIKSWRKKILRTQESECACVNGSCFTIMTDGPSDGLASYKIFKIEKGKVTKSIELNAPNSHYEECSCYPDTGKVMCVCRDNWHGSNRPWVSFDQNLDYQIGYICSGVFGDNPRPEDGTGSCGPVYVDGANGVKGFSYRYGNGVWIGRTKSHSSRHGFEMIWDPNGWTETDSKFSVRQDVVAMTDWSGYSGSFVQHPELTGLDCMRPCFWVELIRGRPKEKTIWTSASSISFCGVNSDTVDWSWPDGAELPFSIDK

Neuraminidase (Influenza A virus (A/Puerto Rico/8/1934(H1N1))), sequence (P03468 whole entry): as above

Compound | CC50 at 72 h [1] [µg/mL] | CC50 at 72 h [2] [µg/mL] | IC50 [3] [µg/mL] | inhibition [4] [%] | inhibition [5] | IC50 [6] [µM]
O=C1O/C(=C\c2ccc(O)cc2)C(O)=C1c1ccc(O)cc1 [ASPULVINONE E] | > 250 | > 250 | 56.9 (≈ 192 µM) |  |  | 
O=C1O/C(=C/c2ccc(O)cc2)C(O)=C1c1ccc(O)cc1 [ISOASPULVINONE E] | > 250 | > 250 | 32.3 (≈ 109 µM) | 60 | Dose-dependent effect | 210
O=C1O/C(=C(/C(=O)O)c2ccccc2)C(O)=C1c1ccccc1 [PULVIC ACID] | > 250 | > 250 | 29.1 (≈ 94.4 µM) |  |  | 
CC(=O)N[C@H]1[C@H]([C@H](O)[C@H](O)CO)OC(C(=O)O)=C[C@@H]1NC(=N)N [ZANAMIVIR] |  |  | 0.0284 (≈ 0.0855 µM) |  |  | 
